For 35 compounds, IC50 results are on record in patent publication US8754079B2, “Cycloalkyl containing thienopyrimidines for pharmaceutical compositions” (Boehringer Ingelheim International GmbH, priority 2010, dated 2014).

The assay addresses T1, MNK2 (Homo sapiens, UniProt Q9HBH9).
T1 construct: the open reading frames of human Mnk1 and Mnk2a were amplified from cDNA; made in house; host or cells: E. coli BL21
In words: Mnk2a in vitro kinase assay (indirect fluorescence polarization). It is filed as biochemical. As to conditions: pre-activated GST-Mnk2a 2.5 nM, 20 μM ATP, 30 μM substrate peptide. The essentials:
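Human GST-Mnk2a was expressed in E. coli and activated in vitro with 150 nM pre-activated ERK2 and 50 μM ATP in HEPES pH 7.4/MgCl2 buffer (45 min, 30 °C). Activity on an eIF4E Ser209-derived 12mer peptide was read by competitive fluorescence polarization with a phospho-specific antibody.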
(In general: Fluorescence polarisation rises when a labelled molecule tumbles more slowly, as on binding a larger partner.)

By IC50 is commonly meant the concentration needed to halve the response being measured. Low readings indicate greater potency in that assay, high ones weaker potency in that assay.

T1 sequence (Q9HBH9 whole entry): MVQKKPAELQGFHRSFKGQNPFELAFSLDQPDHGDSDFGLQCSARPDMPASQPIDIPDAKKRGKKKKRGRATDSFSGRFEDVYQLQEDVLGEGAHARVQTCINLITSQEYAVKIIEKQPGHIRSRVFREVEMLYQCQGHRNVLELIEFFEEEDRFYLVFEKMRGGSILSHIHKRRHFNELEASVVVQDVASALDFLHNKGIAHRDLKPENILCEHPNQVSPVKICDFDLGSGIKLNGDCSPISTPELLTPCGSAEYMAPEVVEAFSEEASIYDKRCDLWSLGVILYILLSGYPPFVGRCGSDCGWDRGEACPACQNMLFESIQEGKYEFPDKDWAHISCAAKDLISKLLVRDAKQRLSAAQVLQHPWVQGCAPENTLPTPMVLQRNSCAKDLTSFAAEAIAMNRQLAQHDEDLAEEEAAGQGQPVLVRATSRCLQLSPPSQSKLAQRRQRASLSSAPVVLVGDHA

In turn, `COC(=O)c1sc2ncnc(Nc3ccc(F)cc3O[C@H]3CCCC[C@H]3O)c2c1C` (single isomer, unassigned) [Example 257, 4-[4-fluoro-2-(cis-2-hydroxy-cyclohexyloxy)-phenylamino]-5-methyl-thieno[2,3-d]pyrimidine-6-carboxylic acid methyl ester] showed an IC50 of 0.141 µM. As for `Cc1c(C(=O)O)sc2ncnc(Nc3ccc(F)cc3O[C@@H]3CCCC[C@@H]3O)c12` (single isomer, unassigned) [Example 258, 4-[4-fluoro-2-(cis-2-hydroxy-cyclohexyloxy)-phenylamino]-5-methyl-thieno[2,3-d]pyrimidine-6-carboxylic acid], the concentration for half-maximal inhibition (IC50) worked out at 0.11 µM. To `Cc1c(C(=O)NC2CCN(C)CC2)sc2ncnc(Nc3ccc(F)cc3OC3CCCCC3O)c12` (single isomer, unassigned) [Example 259] belongs 0.346 µM; to `Cc1c(C(=O)NCCCN2CCCC2)sc2ncnc(Nc3ccc(F)cc3OC3CCCCC3O)c12` (single isomer, unassigned) [Example 260], 0.255 µM. Regarding `Cc1c(C(=O)O)sc2ncnc(Nc3ccc(F)cc3O[C@H]3CCCC[C@H]3O)c12` (single isomer, unassigned) [Example 262, 4-[4-fluoro-2-(cis-2-hydroxy-cyclohexyloxy)-phenylamino]-5-methyl-thieno[2,3-d]pyrimidine-6-carboxylic acid], the 50% inhibitory concentration (IC50) amounted to 0.023 µM. The compound `Cc1c(C(=O)NC2CCN(C)CC2)sc2ncnc(Nc3ccc(F)cc3OC3CCCCC3O)c12` (single isomer, unassigned) [Example 265] yielded an IC50 of 0.054 µM. Then `Cc1c(C(N)=O)sc2ncnc(Nc3ccc(F)cc3O[C@H]3CC[C@H](NS(C)(=O)=O)CC3)c12` [Example 3, 4-[4-Fluoro-2-(trans-4-methanesulfonylamino-cyclohexyloxy)-phenylamino]-5-methyl-thieno[2,3-d]pyrimidine-6-carboxylic acid amide], with 0.01 µM. With `Cc1c(C(N)=O)sc2ncnc(Nc3ccc(F)cc3O[C@H]3CC[C@H](N(C)S(C)(=O)=O)CC3)c12` [Example 4, 4-(4-Fluoro-2-(trans-4-(N-methylmethylsulfonamido)cyclohexyloxy)phenylamino)-5-methylthieno[2,3-d]pyrimidine-6-carboxamide], inhibition was half-maximal at 0.023 µM (IC50). Take `CC(=O)N[C@H]1CC[C@H](Oc2cc(F)ccc2Nc2ncnc3sc(C(N)=O)c(C)c23)CC1` [Example 5, 4-(2-(trans-4-acetamidocyclohexyloxy)-4-fluorophenylamino)-5-methylthieno[2,3-d]pyrimidine-6-carboxamide]: half-maximal inhibition (IC50) was put at 0.003 µM.

On to `CC(=O)N[C@H]1CC[C@H](Oc2cc(F)ccc2Nc2ncnc3sc(C(=O)NCCCN(C)C)c(C)c23)CC1` [Example 6], for which the IC50 was 0.007 µM. For the compound `CC(=O)N(C)[C@H]1CC[C@H](Oc2cc(F)ccc2Nc2ncnc3sc(C(N)=O)c(C)c23)CC1` [Example 7], the concentration for half-maximal inhibition (IC50) came to 0.007 µM. Compound `CC(=O)N(C)[C@H]1CC[C@H](Oc2cc(F)ccc2Nc2ncnc3sc(C(=O)NCCCN(C)C)c(C)c23)CC1` [Example 8, N-(3-(dimethylamino)propyl)-4-(4-fluoro-2-(trans-4-(N-methylacetamido)cyclohexyloxy)phenylamino)-5-methylthieno[2,3-d]pyrimidine-6-carboxamide] yielded an IC50 of 0.012 µM. Regarding `Cc1c(C(N)=O)sc2ncnc(Nc3ccc(F)cc3O[C@H]3CC[C@@H](N(C)S(C)(=O)=O)CC3)c12` [Example 9, 4-(4-Fluoro-2-(cis-4-(N-methylmethylsulfonamido)cyclohexyloxy)phenylamino)-5-methylthieno[2,3-d]pyrimidine-6-carboxamide], half-maximal inhibition (IC50) was put at 5.9 µM. As to `CC(=O)N(C)[C@H]1CC[C@@H](Oc2cc(F)ccc2Nc2ncnc3sc(C(N)=O)c(C)c23)CC1` [Example 10], half-maximal inhibition (IC50) required 2.5 µM.

As for `COC(=O)N(C)[C@H]1CC[C@H](Oc2cc(F)ccc2Nc2ncnc3sc(C(N)=O)c(C)c23)CC1` [Example 11, Methyl trans-4-(2-(6-carbamoyl-5-methylthieno[2,3-d]pyrimidin-4-ylamino)-5-fluorophenoxy)cyclohexyl(methyl)carbamate], inhibition was half-maximal at 0.007 µM (IC50). Then `CN[C@H]1CC[C@H](Oc2cc(F)ccc2Nc2ncnc3sc(C(N)=O)c(C)c23)CC1` [Example 12, 4-(4-Fluoro-2-(trans-4-(methylamino)cyclohexyloxy)phenylamino)-5-methylthieno[2,3-d]pyrimidine-6-carboxamide], with 0.007 µM; and `Cc1c(C(N)=O)sc2ncnc(Nc3ccc(F)cc3O[C@H]3CC[C@H](NC4CCN(C)CC4)CC3)c12` [Example 16, 4-(4-Fluoro-2-(trans-4-(1-methylpiperidin-4-ylamino)cyclohexyloxy)phenylamino)-5-methylthieno[2,3-d]pyrimidine-6-carboxamide], with 0.013 µM. With `Cc1c(C(N)=O)sc2ncnc(Nc3ccc(F)cc3OC3CCC4(CC3)OCCO4)c12` [Example 19, 4-(2-(1,4-Dioxaspiro[4.5]decan-8-yloxy)-4-fluorophenylamino)-5-methylthieno[2,3-d]pyrimidine-6-carboxamide], the concentration for half-maximal inhibition (IC50) was 0.031 µM.

As to `COC(=O)c1sc2ncnc(Nc3ccc(F)cc3OC3CCC(=O)CC3)c2c1C` [Example 20, Methyl 4-(4-fluoro-2-(4-oxocyclohexyloxy)phenylamino)-5-methylthieno[2,3-d]pyrimidine-6-carboxylate], the IC50 was determined as 0.36 µM. This IC50 lies about 12-fold higher than the previous one. `Cc1c(C(N)=O)sc2ncnc(Nc3ccc(F)cc3OC3CCC(=O)CC3)c12` [Example 21, 4-(4-Fluoro-2-(4-oxocyclohexyloxy)phenylamino)-5-methylthieno[2,3-d]pyrimidine-6-carboxamide] registered an IC50 of 0.031 µM. In turn, `COCCN(C)[C@H]1CC[C@H](Oc2cc(F)ccc2Nc2ncnc3sc(C(N)=O)c(C)c23)CC1` [Example 22, 4-(4-Fluoro-2-(trans-4-((2-methoxyethyl)(methyl)amino)cyclohexyloxy)phenylamino)-5-methylthieno[2,3-d]pyrimidine-6-carboxamide] registered an IC50 of 0.065 µM. Then `COCCN(C)[C@H]1CC[C@@H](Oc2cc(F)ccc2Nc2ncnc3sc(C(N)=O)c(C)c23)CC1` [Example 23, 4-(4-Fluoro-2-(cis-4-((2-methoxyethyl)(methyl)amino)cyclohexyloxy)phenylamino)-5-methylthieno[2,3-d]pyrimidine-6-carboxamide], with 0.92 µM.

Compound `COCCN[C@H]1CC[C@H](Oc2cc(F)ccc2Nc2ncnc3sc(C(N)=O)c(C)c23)CC1` [Example 24, 4-(4-Fluoro-2-(trans-4-(2-methoxyethylamino)cyclohexyloxy)phenylamino)-5-methylthieno[2,3-d]pyrimidine-6-amide] registered an IC50 of 0.014 µM.

`COCCN[C@H]1CC[C@@H](Oc2cc(F)ccc2Nc2ncnc3sc(C(N)=O)c(C)c23)CC1` [Example 25, 4-(4-Fluoro-2-(cis-4-(2-methoxyethylamino)cyclohexyloxy)phenylamino)-5-methylthieno[2,3-d]pyrimidine-6-carboxamide] registered an IC50 of 0.3 µM. In the case of `Cc1c(C(N)=O)sc2ncnc(Nc3ccc(F)cc3O[C@H]3CC[C@H](N4CCOCC4)CC3)c12` [Example 26, 4-(4-Fluoro-2-(trans-4-morpholinocyclohexyloxy)phenylamino)-5-methylthieno[2,3-d]pyrimidine-6-carboxamide], the IC50 amounted to 0.082 µM. Compound `Cc1c(C(N)=O)sc2ncnc(Nc3ccc(F)cc3O[C@H]3CC[C@@H](N4CCOCC4)CC3)c12` [Example 27, 4-(4-Fluoro-2-(cis-4-morpholinocyclohexyloxy)phenylamino)-5-methylthieno[2,3-d]pyrimidine-6-carboxamide] had an IC50 of 9.7 µM.

For the compound `COC(=O)c1sc2ncnc(Nc3ccc(F)cc3O[C@@H]3C[C@H](O)C[C@H](O)C3)c2c1C` [Example 28.1], the IC50 amounted to 0.158 µM.

The compound `CO[C@@H]1C[C@H](OC)C[C@H](Oc2cc(F)ccc2Nc2ncnc3sc(C(N)=O)c(C)c23)C1` [Example 29] displayed an IC50 of 0.09 µM. Compared with the last compound, the IC50 is about 1.8-fold lower. Take `COC(=O)c1sc2ncnc(Nc3ccc(F)cc3OC3CCC(C)(C)CC3)c2c1C` [Example 31.1]: the IC50 stood at 0.037 µM.

`Cc1c(C(=O)NCCCN(C)C)sc2ncnc(Nc3ccc(F)cc3OC3CCC(C)(C)CC3)c12` [Example 32, 4-[2-(4,4-Dimethyl-cyclohexyloxy)-4-fluoro-phenylamino]-5-methyl-thieno[2,3-d]pyrimidine-6-carboxylic acid (3-dimethylamino-propyl)-amide] displayed an IC50 of 0.036 µM. Compound `Cc1c(C(N)=O)sc2ncnc(Nc3ccc(F)cc3OC3CCC(F)(F)CC3)c12` [Example 33, 4-[2-(4,4-Difluoro-cyclohexyloxy)-4-fluoro-phenylamino]-5-methyl-thieno[2,3-d]pyrimidine-6-carboxylic acid amide] showed an IC50 of 0.007 µM. Compared with the last compound, the IC50 is about 5.1-fold lower. Compound `Cc1c(C(=O)NCCCN(C)C)sc2ncnc(Nc3ccc(F)cc3OC3CCC(F)(F)CC3)c12` [Example 34, 4-[2-(4,4-Difluoro-cyclohexyloxy)-4-fluoro-phenylamino]-5-methyl-thieno[2,3-d]pyrimidine-6-carboxylic acid (3-dimethylamino-propyl)-amide] returned an IC50 of 0.028 µM. This IC50 is about 4-fold higher than that of the compound before. In the case of `CC(=O)N[C@H]1C[C@H](Oc2cc(F)ccc2Nc2ncnc3sc(C(=O)O)c(C)c23)C1` [Example 35.2, 4-[2-(trans-3-Acetylamino-cyclobutoxy)-4-fluoro-phenylamino]-5-methyl-thieno[2,3-d]pyrimidine-6-carboxylic acid], the IC50 was 0.023 µM. `CC(=O)N[C@H]1C[C@H](Oc2cc(F)ccc2Nc2ncnc3sc(C(N)=O)c(C)c23)C1` [Example 35.3, 4-[2-(trans-3-Acetylamino-cyclobutoxy)-4-fluoro-phenylamino]-5-methyl-thieno[2,3-d]pyrimidine-6-carboxylic acid amide] gave an IC50 of 0.023 µM.

On to `CC(=O)N[C@H]1C[C@H](Oc2cc(F)ccc2Nc2ncnc3sc(C(=O)NCCCN(C)C)c(C)c23)C1` [Example 36], for which the midpoint of inhibition, the IC50, lay at 0.066 µM.
